Measured values taken from patent US12435087B2, “Modulators of DCN-1 and methods of use thereof” (Cellarity, Inc., priority 2023, dated 2025).
Read-outs that look alike come from different tables or passages of the source.

Molecular target: DCN1 (DCUND1) protein PONY domain (Homo sapiens (Human), UniProt Q96GG9)
Assay: TR-FRET assay (binding to DCN-1, displacement of FAM-labeled probe)
Excerpt: (§1) The TR-FRET assay was designed following the Scott et al. protocol (Scott et al., Nat Chem Biol. 2017 August; 13(8): 850-857. doi:10.1038/nchembio.2386). The recombinant form of the DCN1 (DCUND1) protein PONY domain was produced using an E. coli expression system at Viva Biotech (China). The DCN1 protein was biotinylated (EZ sulfo-NHS-LC-biotin; Thermofisher) for labeling with streptavidin terbium (Tb) cryptate in the reaction. The probe was changed to a non-covalent DCN1 inhibitor labeled with carboxyfluorescein (FAM; Zhou et al., Nat Commun. 2017; 8: 1150. doi: 10.1038/s41467-017-01243-7). Buffer conditions were modified to enhance protein stability by exchanging Tween20 for TritonX and increasing NaCl to 200 mM. The compounds were screened against 5 nM DCN1 and 20 nM FAM-probe or 0.31 nM DCN1 and 900 nM total probe (100 nM FAM-labeled plus 800 nM unlabeled). The TR-FRET ratio between Tb-DCN1 and the FAM-labeled probe was measured in a 384-well opti-plate (Perkin Elmer) using a plate reader (BMG) at 1, 5, and 24 hrs after treatment with compound (final DMSO concentration of 0.1%). The ratio was normalized to the high (DCN1 and FAM-probe) and low (DCN1 and no probe) controls for a readout of % activity (=100*(x−low)/(high−low).
A TR-FRET assay was performed to evaluate the ability of the compounds to bind the DCN-1 protein.
as §1, with “850-857. Doi: 10.1038/nchembio.2386).” for “850-857. doi:10.1038/nchembio.2386).”, “the DCNI” for “the DCN1”, “1150. Doi:” for “1150. doi:”, “0.1%).” for “0.1%). The ratio was normalized to the high (DCN1 and FAM-probe) and low (DCN1 and no probe) controls for a readout of % activity (=100*(x−low)/(high−low).”

[1] = 24 hr after treatment with compound, read-out: TR FRET IC50 24 hr
[2] = TR FRET IC50 1 hr (nM), 1 hr after treatment with compound

Sequence of DCN1 (DCUND1) protein PONY domain (Q96GG9 60-248): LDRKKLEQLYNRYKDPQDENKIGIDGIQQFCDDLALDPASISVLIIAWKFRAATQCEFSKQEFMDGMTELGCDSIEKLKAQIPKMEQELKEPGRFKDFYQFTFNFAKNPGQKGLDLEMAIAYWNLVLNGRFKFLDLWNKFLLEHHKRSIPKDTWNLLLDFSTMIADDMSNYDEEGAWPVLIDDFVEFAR

Row | SMILES | IC50 [1] | IC50 [2]
1 | C=CC(=O)N(C)c1cccc([C@H]2c3cnn(-c4ccccc4)c3N(CC)C(=O)[C@@H]2NC(=O)c2cccc(C(F)(F)F)c2)c1 (racemic) [Compound I-74] | 1000 to 3000 nM | 1000 to 3000 nM
2 | CCN1C(=O)[C@@H](NC(=O)c2cccc(C(F)(F)F)c2)[C@H](c2cc(NC(=O)/C=C/CN(C)C)ccc2F)c2cnn(-c3ccccc3)c21 (racemic) [Compound I-79] | 200 to 1000 nM | 1000 to 3000 nM
3 | CCN1C(=O)[C@@H](NC(=O)c2cccc(C(F)(F)F)c2)[C@@H](c2cc(F)cc(NC(=O)/C=C/CN(C)C)c2)c2cnn(-c3ccccc3)c21 (racemic) [Compound I-85] | 1000 to 3000 nM | 1000 to 3000 nM
4 | C=C(C)S(=O)(=O)Nc1cccc([C@H]2c3c(C)nn(-c4ccccc4)c3N(CC)C(=O)[C@@H]2NC(=O)c2cccc(C(F)(F)F)c2)c1 (racemic) [Compound I-88] | 1000 to 3000 nM | 1000 to 3000 nM
5 | CCN1C(=O)[C@H](NC(=O)c2cccc(C(F)(F)F)c2)[C@@H](c2ccccc2-n2sccc2=O)c2cnn(-c3ccccc3)c21 (racemic) [Compound I-89, ˜{N}—[˜{rac}-(4˜{S},5˜{R})-7-ethyl-6-oxo-4-[2-(3-oxoisothiazol-2-yl)phenyl]-1-phenyl-4,5-dihydropyrazolo[3,4-b]pyridin-5-yl]-3-(trifluoromethyl)benzamide] | 1000 to 3000 nM | 1000 to 3000 nM
6 | CCN1C(=O)[C@H](NC(=O)c2cccc(C(F)(F)F)c2)[C@@H](c2ccccc2N(C)C#N)c2cnn(-c3ccccc3)c21 (racemic) [Compound I-90, ˜{N}—[˜{rac}-(4˜{S},5˜{R})-4-[2-[cyano(methyl)amino]phenyl]-7-ethyl-6-oxo-1-phenyl-4,5-dihydropyrazolo[3,4-b]pyridin-5-yl]-3-(trifluoromethyl)benzamide] | 1000 to 3000 nM | 1000 to 3000 nM
7 | Cc1nn(-c2ccccc2)c2c1[C@H](c1cccc(NC(=O)C3=CCC3)c1)[C@@H](NC(=O)c1cccc(C(F)(F)F)c1)C(=O)N2CCO (racemic) [Compound I-92, rac-N-((4R,5S)-4-(3-(cyclobut-1-ene-1-carboxamido)phenyl)-7-(2-hydroxyethyl)-3-methyl-6-oxo-1-phenyl-4,5,6,7-tetrahydro-1H-pyrazolo[3,4-b]pyridin-5-yl)-3-(trifluoromethyl)benzamide] | 1000 to 3000 nM | 1000 to 3000 nM
8 | C=CC(=O)N(C)c1ccccc1[C@H]1c2cnn(-c3ccccc3)c2N(CC)C(=O)[C@@H]1NC(=O)c1cccc(C(F)(F)F)c1 (racemic) [Compound I-97, ˜{N}—[˜{rac}-(4˜{S},5˜{R})-7-ethyl-4-[2-[methyl(prop-2-enoyl)amino]phenyl]-6-oxo-1-phenyl-4,5-dihydropyrazolo[3,4-b]pyridin-5-yl]-3-(trifluoromethyl)benzamide] | 1000 to 3000 nM | 1000 to 3000 nM
9 | CC#CC(=O)N(C)c1ccccc1[C@H]1c2cnn(-c3ccccc3)c2N(CC)C(=O)[C@@H]1NC(=O)c1cccc(C(F)(F)F)c1 (racemic) [Compound I-98, ˜{N}—[˜{rac}-(4˜{S},5˜{R})-4-[2-[but-2-ynoyl(methyl)amino]phenyl]-7-ethyl-6-oxo-1-phenyl-4,5-dihydropyrazolo[3,4-b]pyridin-5-yl]-3-(trifluoromethyl)benzamide] | 1000 to 3000 nM | 1000 to 3000 nM
10 | CCN1C(=O)[C@H](NC(=O)c2cccc(C(F)(F)F)c2)[C@@H](c2cccc(N(C)C(=O)/C=C/C(F)(F)F)c2)c2cnn(-c3ccccc3)c21 (racemic) [Compound I-99] | 1000 to 3000 nM | 1000 to 3000 nM
11 | CCN1C(=O)[C@@H](NC(=O)c2cccc(C(F)(F)F)c2)[C@H](c2ccccc2CNC(=O)C2=CCC2)c2cnn(-c3ccccc3)c21 (racemic) [Compound I-101] | 1000 to 3000 nM | 1000 to 3000 nM
12 | CCN1C(=O)[C@@H](NC(=O)c2cccc(C(F)(F)F)c2)[C@H](c2cccc(CN(C)C#N)c2)c2cnn(-c3ccccc3)c21 (racemic) [Compound I-104] | 1000 to 3000 nM | 1000 to 3000 nM
13 | CCN1C(=O)[C@@H](NC(=O)c2cccc(C(F)(F)F)c2)[C@@H](c2cc(NC(=O)/C=C/CN(C)C)ccc2F)c2cnn(-c3ccccc3)c21 (racemic) [Compound I-107] | 1000 to 3000 nM | 1000 to 3000 nM
14 | C=CC(=O)NCc1cccc([C@@H]2c3cnn(-c4ccccc4)c3N(CC)C(=O)[C@H]2NC(=O)c2cccc(C(F)(F)F)c2)c1 (racemic) [Compound I-111] | 1000 to 3000 nM | 1000 to 3000 nM
15 | C=CC(=O)NCc1ccccc1[C@@H]1c2cnn(-c3ccccc3)c2N(CC)C(=O)[C@H]1NC(=O)c1cccc(C(F)(F)F)c1 (racemic) [Compound I-113] | 1000 to 3000 nM | 1000 to 3000 nM
16 | CCN1C(=O)[C@@H](NC(=O)c2cccc(C(F)(F)F)c2)[C@H](c2cccc(NC(=O)C3=C(C(=O)OC)CCC3)c2)c2c(C)nn(-c3ccccc3)c21 (racemic) [Compound I-117] | 1000 to 3000 nM | 1000 to 3000 nM
17 | CCN1C(=O)[C@@H](NC(=O)c2cccc(C(F)(F)F)c2)[C@H](c2ccccc2CNC(=O)/C=C/CN(C)C)c2cnn(-c3ccccc3)c21 (racemic) [Compound I-120] | 1000 to 3000 nM | 1000 to 3000 nM
18 | CCN1C(=O)[C@H](NC(=O)c2cccc(C(F)(F)F)c2)[C@@H](c2ccccc2NC#N)c2cnn(-c3ccccc3)c21 (racemic) [Compound I-122, ˜{N}—[˜{rac}-(4˜{S},5˜{R})-4-[2-(cyanoamino)phenyl]-7-ethyl-6-oxo-1-phenyl-4,5-dihydropyrazolo[3,4-b]pyridin-5-yl]-3-(trifluoromethyl)benzamide] | 1000 to 3000 nM | 1000 to 3000 nM
19 | CCN1C(=O)[C@H](NC(=O)c2cccc(C(F)(F)F)c2)[C@@H](c2cccc(NC(=O)C3CCC3)c2)c2c(C)nn(-c3ccccc3)c21 (racemic) [Compound I-123] | 1000 to 3000 nM | 1000 to 3000 nM
20 | CCN1C(=O)[C@H](NC(=O)c2cccc(C(F)(F)F)c2)[C@@H](c2cccc(NC(C)=O)c2)c2c(C)nn(-c3ccccc3)c21 (racemic) [Compound I-124] | 1000 to 3000 nM | 1000 to 3000 nM
21 | CCN1C(=O)[C@@H](NC(=O)c2cccc(C(F)(F)F)c2)[C@H](c2cccc(CNC(=O)C3=CCC3)c2)c2cnn(-c3ccccc3)c21 (racemic) [Compound I-126] | 1000 to 3000 nM | 1000 to 3000 nM
22 | C/C=C(/C)S(=O)(=O)Nc1cccc([C@H]2c3c(C)nn(-c4ccccc4)c3N(CC)C(=O)[C@@H]2NC(=O)c2cccc(C(F)(F)F)c2)c1 (racemic) [Compound I-127] | 1000 to 3000 nM | 1000 to 3000 nM
23 | CCN1C(=O)[C@@H](NC(=O)c2cccc(C(F)(F)F)c2)[C@@H](c2ccc(F)c(NC(=O)/C=C/CN(C)C)c2)c2cnn(-c3ccccc3)c21 (racemic) [Compound I-129] | 1000 to 3000 nM | 1000 to 3000 nM
24 | C/C=C/S(=O)(=O)Nc1cccc([C@H]2c3c(C)nn(-c4ccccc4)c3N(CC)C(=O)[C@@H]2NC(=O)c2cccc(C(F)(F)F)c2)c1 (racemic) [Compound I-131] | ≤ 200 nM | 200 to 1000 nM
25 | CCN1C(=O)[C@H](NC(=O)c2cccc(C(F)(F)F)c2)[C@@H](c2cccc(NC(=O)C#CCN(C)C)c2)c2cnn(-c3ccccc3)c21 (racemic) [Compound I-132, rac-N-((4R,5S)-4-(3-(4-(dimethylamino)but-2-ynamido)phenyl)-7-ethyl-6-oxo-1-phenyl-4,5,6,7-tetrahydro-1H-pyrazolo[3,4-b]pyridin-5-yl)-3-(trifluoromethyl)benzamide] | 200 to 1000 nM | 200 to 1000 nM
26 | CCN1C(=O)[C@@H](NC(=O)c2cccc(C(F)(F)F)c2)[C@H](c2cccc(CNC#N)c2)c2c(C)nn(-c3ccccc3)c21 (racemic) [Compound I-138] | 200 to 1000 nM | 200 to 1000 nM
27 | CCN1C(=O)[C@H](NC(=O)c2cccc(C(F)(F)F)c2)[C@@H](c2cccc(NC(=O)C#CCN3CCOCC3)c2)c2c(C)nn(-c3ccccc3)c21 (racemic) [Compound I-139, rac-N-((4R,5S)-7-ethyl-3-methyl-4-(3-(4-morpholinobut-2-ynamido)phenyl)-6-oxo-1-phenyl-4,5,6,7-tetrahydro-1H-pyrazolo[3,4-b]pyridin-5-yl)-3-(trifluoromethyl)benzamide] | 200 to 1000 nM | 1000 to 3000 nM
